We go through 8 cell lines from the supplement of paper PMC10307832.

Assay in all cases: relative viability (nuclei count vs DMSO), 5 days (fraction); higher = more cells survive
Compound in the assay “RU-SKI 43 + Lapatinib”: CC[C@@H](C)CNCC(=O)N1CCC2=C([C@@H]1COC3=CC=CC(=C3)C)C=CS2 [RU-SKI 43] + CS(=O)(=O)CCNCc1ccc(-c2ccc3ncnc(Nc4ccc(OCc5cccc(F)c5)c(Cl)c4)c3c2)o1 [Lapatinib] (partner 2 µM)
Put shortly: (§1)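 Dosing by pin tool came one day after lung cancer cell lines were seeded in 1536-well plates, using either one drug or a fixed anchor-drug dose plus five library-drug doses (not always all listed) in √10 steps. After 5 days, nuclei were counted on 4× images. Relative viability is treated-well nuclei count divided by vehicle-well nuclei count, and values are medians of duplicate plates.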

Compound in the assay “MK-8033 + Olaparib”: Cn1cc(-c2cnc3ccc4ccc(CS(=O)(=O)NCc5ccccn5)cc4c(=O)c3c2)cn1 [MK-8033] + O=C(c1cc(Cc2n[nH]c(=O)c3ccccc23)ccc1F)N1CCN(C(=O)C2CC2)CC1 [Olaparib] (partner 8 µM)
In a few lines:
as §1

Compound in the assay “RU-SKI 43 + AZD7762”: CC[C@@H](C)CNCC(=O)N1CCC2=C([C@@H]1COC3=CC=CC(=C3)C)C=CS2 [RU-SKI 43] + NC(=O)Nc1cc(-c2cccc(F)c2)sc1C(=O)N[C@H]1CCCNC1 [AZD7762] (partner 0.2 µM)
In a few lines: as §1

Compound in the assay “MK-8033 + Trametinib”: Cn1cc(-c2cnc3ccc4ccc(CS(=O)(=O)NCc5ccccn5)cc4c(=O)c3c2)cn1 [MK-8033] + CC(=O)Nc1cccc(-n2c(=O)n(C3CC3)c(=O)c3c(Nc4ccc(I)cc4F)n(C)c(=O)c(C)c32)c1 [Trametinib] (partner 0.02 µM)
In a few lines:
as §1

Regarding Calu-6, the relative viability with RU-SKI 43 + Lapatinib (first compound 0.1 µM) was determined as 1.28; in the assay with RU-SKI 43 + Lapatinib (first compound 0.3162 µM) it was 1.43; with RU-SKI 43 + Lapatinib (first compound 1 µM), 1.08; in the assay with RU-SKI 43 + Lapatinib (first compound 3.162 µM), 1.1; with RU-SKI 43 + Lapatinib (first compound 10 µM), 0.982; in the assay with MK-8033 + Olaparib (first compound 0.02 µM), 0.601. In addition, the relative viability came to 0.559 in the assay with MK-8033 + Olaparib (first compound 0.06325 µM), 0.553 with MK-8033 + Olaparib (first compound 0.2 µM), 0.582 with MK-8033 + Olaparib (first compound 0.6325 µM) and 0.548 with MK-8033 + Olaparib (first compound 2 µM).
As to ChaGo-K-1, the relative viability with RU-SKI 43 + AZD7762 (first compound 0.1 µM) was found to be 0.877; with RU-SKI 43 + AZD7762 (first compound 0.3162 µM) it was 1.04; in the assay with RU-SKI 43 + AZD7762 (first compound 1 µM), 0.836; in the assay with RU-SKI 43 + AZD7762 (first compound 3.162 µM), 0.921; in the assay with RU-SKI 43 + AZD7762 (first compound 10 µM), 0.801; in the assay with MK-8033 + Trametinib (first compound 0.02 µM), 0.877. The relative viability with MK-8033 + Trametinib (first compound 0.06325 µM) is 0.717; in the assay with MK-8033 + Trametinib (first compound 0.2 µM), 0.802; with MK-8033 + Trametinib (first compound 0.6325 µM) it was 0.886; with MK-8033 + Trametinib (first compound 2 µM), 0.729; with MK-8033 + Olaparib (first compound 0.02 µM), 0.442; in the assay with MK-8033 + Olaparib (first compound 0.06325 µM), 0.412. Further, the relative viability with MK-8033 + Olaparib (first compound 0.2 µM) amounted to 0.415; with MK-8033 + Olaparib (first compound 0.6325 µM), 0.433; with MK-8033 + Olaparib (first compound 2 µM) it was 0.372.
Regarding EBC-1, the relative viability in the assay with RU-SKI 43 + Lapatinib (first compound 0.1 µM) worked out at 0.186; in the assay with RU-SKI 43 + Lapatinib (first compound 0.3162 µM) it was 0.189; with RU-SKI 43 + Lapatinib (first compound 1 µM), 0.215; with RU-SKI 43 + Lapatinib (first compound 3.162 µM) it was 0.197; with RU-SKI 43 + Lapatinib (first compound 10 µM), 0.181; in the assay with MK-8033 + Olaparib (first compound 0.02 µM), 0.659. The relative viability in the assay with MK-8033 + Olaparib (first compound 0.06325 µM) came to 0.565; with MK-8033 + Olaparib (first compound 0.2 µM) it was 0.792; with MK-8033 + Olaparib (first compound 0.6325 µM), 0.648; with MK-8033 + Olaparib (first compound 2 µM), 0.568.
Regarding EKVX, the relative viability turned out to be 0.185 with RU-SKI 43 + Lapatinib (first compound 0.1 µM); 0.175 in the assay with RU-SKI 43 + Lapatinib (first compound 0.3162 µM); 0.202 with RU-SKI 43 + Lapatinib (first compound 1 µM); 0.208 with RU-SKI 43 + Lapatinib (first compound 3.162 µM); 0.187 in the assay with RU-SKI 43 + Lapatinib (first compound 10 µM); 0.605 with RU-SKI 43 + AZD7762 (first compound 0.1 µM). Further, the relative viability was found to be 0.714 with RU-SKI 43 + AZD7762 (first compound 0.3162 µM); 0.874 with RU-SKI 43 + AZD7762 (first compound 1 µM); 0.707 with RU-SKI 43 + AZD7762 (first compound 3.162 µM); 0.658 in the assay with RU-SKI 43 + AZD7762 (first compound 10 µM); 0.334 in the assay with MK-8033 + Trametinib (first compound 0.02 µM); 0.297 with MK-8033 + Trametinib (first compound 0.06325 µM). Further, the relative viability in the assay with MK-8033 + Trametinib (first compound 0.2 µM) was found to be 0.295; with MK-8033 + Trametinib (first compound 0.6325 µM), 0.367; in the assay with MK-8033 + Trametinib (first compound 2 µM), 0.344; with MK-8033 + Olaparib (first compound 0.02 µM), 0.85; with MK-8033 + Olaparib (first compound 0.06325 µM) it was 0.842; with MK-8033 + Olaparib (first compound 0.2 µM) it was 0.825. Besides, the relative viability came to 0.763 with MK-8033 + Olaparib (first compound 0.6325 µM) and 0.859 in the assay with MK-8033 + Olaparib (first compound 2 µM).
Consider EMC-BAC-2, for which the relative viability was 0.924 with RU-SKI 43 + Lapatinib (first compound 0.1 µM); 0.961 in the assay with RU-SKI 43 + Lapatinib (first compound 0.3162 µM); 0.933 in the assay with RU-SKI 43 + Lapatinib (first compound 1 µM); 0.983 with RU-SKI 43 + Lapatinib (first compound 3.162 µM); 0.916 in the assay with RU-SKI 43 + Lapatinib (first compound 10 µM); 1.1 with RU-SKI 43 + AZD7762 (first compound 0.1 µM). Further, the relative viability is 1.1 with RU-SKI 43 + AZD7762 (first compound 0.3162 µM); 1.27 in the assay with RU-SKI 43 + AZD7762 (first compound 1 µM); 1.13 in the assay with RU-SKI 43 + AZD7762 (first compound 3.162 µM); 1.09 with RU-SKI 43 + AZD7762 (first compound 10 µM); 0.804 with MK-8033 + Trametinib (first compound 0.02 µM); 0.776 with MK-8033 + Trametinib (first compound 0.06325 µM). Moreover, the relative viability with MK-8033 + Trametinib (first compound 0.2 µM) turned out to be 0.826; with MK-8033 + Trametinib (first compound 0.6325 µM), 0.928; with MK-8033 + Trametinib (first compound 2 µM), 0.902; with MK-8033 + Olaparib (first compound 0.02 µM), 0.501; in the assay with MK-8033 + Olaparib (first compound 0.06325 µM), 0.477; with MK-8033 + Olaparib (first compound 0.2 µM) it was 0.473. Further, the relative viability in the assay with MK-8033 + Olaparib (first compound 0.6325 µM) was 0.49; with MK-8033 + Olaparib (first compound 2 µM), 0.479.
Consider EPLC-272H, for which the relative viability with RU-SKI 43 + Lapatinib (first compound 0.1 µM) came out at 0.913; with RU-SKI 43 + Lapatinib (first compound 0.3162 µM), 0.831; with RU-SKI 43 + Lapatinib (first compound 1 µM), 1.25; in the assay with RU-SKI 43 + Lapatinib (first compound 10 µM), 0.833; with RU-SKI 43 + AZD7762 (first compound 0.1 µM), 0.242; with RU-SKI 43 + AZD7762 (first compound 0.3162 µM), 0.194. The relative viability in the assay with RU-SKI 43 + AZD7762 (first compound 1 µM) worked out at 0.195; with RU-SKI 43 + AZD7762 (first compound 3.162 µM) it was 0.345; in the assay with RU-SKI 43 + AZD7762 (first compound 10 µM), 0.26; with MK-8033 + Trametinib (first compound 0.02 µM) it was 0.247; in the assay with MK-8033 + Trametinib (first compound 0.06325 µM), 0.263; with MK-8033 + Trametinib (first compound 0.2 µM), 0.29. Moreover, the relative viability with MK-8033 + Trametinib (first compound 0.6325 µM) stood at 0.275; with MK-8033 + Trametinib (first compound 2 µM) it was 0.301; in the assay with MK-8033 + Olaparib (first compound 0.02 µM), 0.817; in the assay with MK-8033 + Olaparib (first compound 0.06325 µM) it was 0.716; with MK-8033 + Olaparib (first compound 0.2 µM), 0.792; with MK-8033 + Olaparib (first compound 0.6325 µM) it was 0.614. Besides, the relative viability in the assay with MK-8033 + Olaparib (first compound 2 µM) was 0.689.
With H3255, the relative viability in the assay with RU-SKI 43 + Lapatinib (first compound 0.1 µM) worked out at 0.249; with RU-SKI 43 + Lapatinib (first compound 0.3162 µM), 0.193; with RU-SKI 43 + Lapatinib (first compound 1 µM) it was 0.174; in the assay with RU-SKI 43 + Lapatinib (first compound 3.162 µM), 0.192; in the assay with RU-SKI 43 + Lapatinib (first compound 10 µM), 0.213; with RU-SKI 43 + AZD7762 (first compound 0.1 µM) it was 0.843. In addition, the relative viability with RU-SKI 43 + AZD7762 (first compound 0.3162 µM) came to 1.02; with RU-SKI 43 + AZD7762 (first compound 1 µM), 1.03; in the assay with RU-SKI 43 + AZD7762 (first compound 3.162 µM) it was 0.839; with RU-SKI 43 + AZD7762 (first compound 10 µM), 0.873; with MK-8033 + Trametinib (first compound 0.02 µM), 0.598; with MK-8033 + Trametinib (first compound 0.2 µM), 0.562. The relative viability came to 0.656 in the assay with MK-8033 + Trametinib (first compound 0.6325 µM); 0.532 in the assay with MK-8033 + Trametinib (first compound 2 µM); 0.567 with MK-8033 + Olaparib (first compound 0.02 µM); 0.504 with MK-8033 + Olaparib (first compound 0.06325 µM); 0.561 in the assay with MK-8033 + Olaparib (first compound 0.2 µM); 0.57 with MK-8033 + Olaparib (first compound 0.6325 µM). Moreover, in the assay with MK-8033 + Olaparib (first compound 2 µM), the relative viability is 0.537.
On to HARA, for which the relative viability in the assay with RU-SKI 43 + Lapatinib (first compound 0.1 µM) turned out to be 0.816; in the assay with RU-SKI 43 + Lapatinib (first compound 0.3162 µM), 0.832; with RU-SKI 43 + Lapatinib (first compound 1 µM), 0.771; with RU-SKI 43 + Lapatinib (first compound 3.162 µM), 0.705; with RU-SKI 43 + Lapatinib (first compound 10 µM) it was 0.76; with RU-SKI 43 + AZD7762 (first compound 0.1 µM), 0.469. Further, the relative viability with RU-SKI 43 + AZD7762 (first compound 0.3162 µM) is 0.243; in the assay with RU-SKI 43 + AZD7762 (first compound 1 µM), 0.301; with RU-SKI 43 + AZD7762 (first compound 3.162 µM), 0.357; in the assay with RU-SKI 43 + AZD7762 (first compound 10 µM) it was 0.279; with MK-8033 + Trametinib (first compound 0.02 µM) it was 0.509; with MK-8033 + Trametinib (first compound 0.06325 µM), 0.525. The relative viability with MK-8033 + Trametinib (first compound 0.2 µM) amounted to 0.825; with MK-8033 + Trametinib (first compound 0.6325 µM), 0.423; with MK-8033 + Trametinib (first compound 2 µM), 0.689; with MK-8033 + Olaparib (first compound 0.02 µM), 0.558; with MK-8033 + Olaparib (first compound 0.06325 µM), 0.542; with MK-8033 + Olaparib (first compound 0.2 µM) it was 0.761. For the same cell line, the relative viability with MK-8033 + Olaparib (first compound 0.6325 µM) was found to be 0.732; in the assay with MK-8033 + Olaparib (first compound 2 µM), 0.639.
